Reference: US11352624B2, “Reducing nonsense-mediated MRNA decay” (Cold Spring Harbor Laboratory, priority 2013, dated 2022)

Legend:
[1] = tested on: mammalian cells carrying PTCs related to Usher syndrome, Rett syndrome, cystic fibrosis, and mucopolysaccharidosis I-Hurler (MPS I-H); conditions: cited from earlier work
[2] = tested on: PTC-containing CFTR transcript (W1282X); test: Radioactive RT-PCR of cells expressing CFTR minigene carrying W1282X, transfected with ASOs; format: cell-based, human; conditions: for relative potency among ASOs of each CFTR exon-exon junction (screening): boundaries 24/25, 25/26, 26/27, 19 ASOs each
Method: ASO microwalks are performed as previously described (7), altogether targeting a region that spans 33 nt from −6 to −38 of the 3′ end of exons that are EJC-bound (FIG. 2). Briefly, cell lines expressing minigenes carrying mutations in the last EJC-bound exon or their wild-type versions and GFP (by transfection using lipofectamine or induction with tetracycline) are co-transfected with each of the 15-mer ASOs, independently. In total, 19 ASOs that are consecutively shifted by 1 nt are tested for each EJC-bound exon-exon junction downstream of the mutations (FIG. 2). This methodology was followed in designing the sequences for the ASOs to target PTC-containing (e.g., disease-causing nonsense mutation) HBB alleles (See SEQ ID NOs 1-19), MECP2 alleles (See SEQ ID NOs 20-38), CFTR alleles (See SEQ ID NOs 39-114), DMD alleles (See SEQ ID NOs 115-190), and IDUA alleles (See SEQ ID Nos 191-268). Different concentrations of ASOs are tested to obtain a dose-response curve. In the case of genes containing more than one exon-exon junction downstream of a PTC, minigene intermediates are constructed to screen for NMD-inhibiting ASOs one junction at a time and in combination with the best targeting ASO that resulted from the screening of the upstream junction. Abrogation of NMD is assessed by RT-PCR, and the percentage of mutant transcript is calculated as described above. Because some of the ASOs might interfere with splicing-factor binding sites, it is important to determine whether the splicing of the targeted exons is adversely affected. Only the ASOs that abrogate NMD without negative effects on splicing are pursued.
Moreover, minigenes consisting of CFTR exons 22-25, 22-26 and 22-27 carrying the W1282X mutation in exon 23 as well as its restive wild-type version were generated. As described above, 19 15-mer ASOs were obtained that target a region spanning nucleotides −38 to −6 of the exons 24/25 boundary and transfected to CFTR minigene expressing cells. Once this screening identified the best NMD inhibiting ASO, it is then transfected in combination with each the 19 15-mer ASOs that target a region spanning nucleotides −38 to −6 of the exons 25/26 boundary. The resulting best combination of ASOs (from each exon-exon boundary) was then transfected in combination with each of the 19 15-mer ASOs that target a region spanning nucleotides −38 to −6 of the exons 26/27 boundary. The levels of spliced CFTR mRNA were then measured after induced expression using radioactive RT-PCR.

[3] = tested on: PTC-containing HBB transcript (T39); test: Radioactive RT-PCR of HeLa cells co-transfected with HBB reporters and ASOs; format: cell-based, human; conditions: for mRNA levels of PTC-containing HBB transcript (T39): HeLa cells, ASO 50 nM co-transfected with HBB Q39X gene, compared with control-ASO, percentages normalized to WT
From the text: (§1) In some examples, it is desirable to start with mutations located in the last presumptive EJC-bound exon, as targeting only one junction at a time will simplify the interpretation of results. Once the effectiveness of preventing EJC deposition by ASOs is confirmed, two or more junctions are targeted. In some examples, three mutations for each gene are selected, and only mutations that lead to a transcript level <50% of the wild-type transcript will be targeted by the ASO microwalk (discussed below). […] Briefly, minigenes carrying the selected mutations and their wild-type versions are co-transfected with a GFP-expressing vector into HeLa cells. Forty-eight hours later, RNA is extracted and radioactive RT-PCR is performed. Products corresponding to the wild-type and mutant minigenes are normalized to GFP expression, and the percentage of the mutant over the wild-type transcript is calculated. In the case of integrated minigenes into U2OS cells, wild-type and mutant minigene products are normalized to endogenous housekeeping genes, e.g. GAPDH.
ASO microwalks are performed as previously described (7), altogether targeting a region that spans 33 nt from −6 to −38 of the 3′ end of exons that are EJC-bound (FIG. 2). Briefly, cell lines expressing minigenes carrying mutations in the last EJC-bound exon or their wild-type versions and GFP (by transfection using lipofectamine or induction with tetracycline) are co-transfected with each of the 15-mer ASOs, independently. […] Abrogation of NMD is assessed by RT-PCR, and the percentage of mutant transcript is calculated as described above. […]
A set of 19 overlapping 2′-O-methoxyethyl phosphorothioate (MOE-P=S) ASO 15mers targeting the canonical EJC region in exon 2 of HBB were synthesized. […] The levels of spliced HBB mRNA were then measured after transient or induced expression using radioactive RT-PCR. […] Truncated protein levels resulting from the ASO treatment were assessed by western blot analysis using anti-GFP antibody.

MECP2 S65X transcript = test: MECP2 S65X minigene reporter, mRNA level after ASO transfection; format: cell-based, human; conditions: microwalk of 19 ASOs
From the text: as §1
ASO microwalks are performed as previously described (7), altogether targeting a region that spans 33 nt from −6 to −38 of the 3′ end of exons that are EJC-bound (FIG. 2). […] Abrogation of NMD is assessed by RT-PCR, and the percentage of mutant transcript is calculated as described above. […]

Molecule	restoration of functional protein [1]	relative potency among ASOs of each CFTR exon-exon junction (screening) [2]	also measured
NC[C@H]1O[C@@H](OC2C(O)[C@H](N)CC(N)[C@H]2O[C@H]2OC(CO)[C@@H](O)C(O)C2N)C(O)C1O (some centres unmarked) [NB30]	restore a significant amount of functional protein		
NCC[C@H](O)C(=O)N[C@@H]1CC(N)[C@@H](O[C@H]2OC(CO)[C@@H](O)[C@H](O)C2N)[C@H](O[C@@H]2O[C@H](CN)[C@H](O)C2O)C1O (some centres unmarked) [NB54]	restore a significant amount of functional protein		
C[C@@H](O)C1O[C@H](O[C@@H]2C(N)C[C@@H](NC(=O)[C@@H](O)CCN)[C@@H](O)C2O[C@@H]2O[C@H](CN)[C@H](O)C2O)[C@@H](N)C(O)[C@@H]1O (some centres unmarked) [NB84]	restore a significant amount of functional protein		
ACTGGGTTCATCAAG (listed as DNA, chemistry not given here) [SEQ ID NO: 83, ASO targeting CFTR exon 25]		most potent ASOs targeting each exon-exon junction	
CATATTTCTTGATCA (listed as DNA, chemistry not given here) [SEQ ID NO: 65, ASO targeting CFTR exon 24]		most potent ASOs targeting each exon-exon junction	
CTCAGGATCCACGTG (2'-MOE phosphorothioate, further chemistry not given here) [SEQ ID NO: 15, 2′-O-methoxyethyl phosphorothioate (MOE-P=S) 15mer]			mRNA levels of PTC-containing HBB transcript (T39) [3]: increase in mRNA levels; relative potency among ASOs targeting HBB exon 2 ([3]; microwalk of 19 ASOs, -38 to -6 from the exon 2/exon 3 junction): most potent ASO targeting HBB exon 2
GCATTCCAGCATTGC (listed as DNA, chemistry not given here) [SEQ ID NO: 107, ASO targeting CFTR exon 26]		most potent ASOs targeting each exon-exon junction	mRNA level of CFTR W1282X transcript, ASOs tested independently (relative potency) ([2]; CFTR 22-17 minigene, one ASO per exon-exon junction downstream of W1282X): most potent ASO
TACTTCCCAGCAGAG (listed as DNA, chemistry not given here) [SEQ ID NO: 25]			relative potency among ASOs targeting MECP2 exon 3 (MECP2 S65X transcript): most potent ASO targeting MECP2 exon 3
TCTCAGGATCCACGT (all 2'-MOE, all phosphorothioate, methylation of C not given here) [SEQ ID NO: 16, ASO targeting HBB exon 2; 2′-O-methoxyethyl phosphorothioate (MOE-P=S) 15mer]			mRNA levels of PTC-containing HBB transcript (T39) [3]: increase in mRNA levels
